From article PMC10562414, “GLP-1R signaling neighborhoods associate with the susceptibility to adverse drug reactions of incretin mimetics” (Nature Communications, 2023)

Tested on: GLP-1R-expressing HEK293 cells (phosphoproteome)
Assay: Phosphoproteomics time course (5, 15, 30, 60 min) in GLP-1R-expressing cells
Format: cell-based, human
Protocol: P values were calculated by a two-sided unpaired t-test.
HEK293 cells (350,000 cells/mL) were transfected in suspension using 3 μg of linear PEI (MW 25,000) per 1 μg of plasmid DNA and seeded onto poly-D-lysine-coated 60 mm dishes at a density of 1,750,000 cells per dish. After a 24-h incubation, cells were washed twice with PBS and placed in starvation media (DMEM with penicillin/streptomycin). After a 48-h incubation, cells were washed twice with HBSS and maintained in the same buffer. […] Cell extracts were prepared as previously described[64]–[66]. In short, 200 μL of the lysis buffer preheated at 95 °C (4% sodium dodecyl sulfate in 50 mM Tris adjusted to pH 8.5) was added to the cells. The samples were then denatured at 95 °C for 10 min, placed on ice and then sonicated using a probe sonicator (3 sec on, 3 sec off pulse, 1 min, 30% amplitude) (Branson). Lysate protein concentration was determined using the Pierce bicinchoninic acid assay kit (Thermo Fisher Scientific) according to the manufacturer’s instructions. The lysates were reduced using 5 mM dithiothreitol for 1 h at room temperature and alkylated using 15 mM iodoacetamide for 1 h at room temperature in the dark. Proteins were precipitated and digested on beads using MagReSyn Amine magnetic beads (ReSyn Biosciences) according to the manufacturer’s instructions. Protein digestion was conducted overnight at 37 °C with lysyl endopeptidase (LysC, Wako) (1:150 LysC/protein, w/w) and trypsin (1:300 trypsin/protein, w/w). 20% TFA, 2 M glycolic acid in 80% ACN were added to the samples at a 1:1 ratio for phosphopeptide enrichment using MagReSyn TiO2 magnetic beads (ReSyn Biosciences) according to the manufacturer’s instructions. The enriched phosphopeptides were dried overnight in a SpeedVac, resuspended into 5% formic acid (FA), desalted using StageTip (Thermo Fisher Scientific) according to the manufacturer’s instructions and dried in a SpeedVac. The experiment was performed in biological triplicates.
All parameters and settings regarding the acquisition of the proteomics data can be found in Supplementary Data 11, 12. For data acquisition, the instrument was set to peptide mode, with a trapping pressure set as low (2mTorr). An EASY-Spray Source (Thermo Fisher Scientific) was used and the column temperature was maintained with the integrated, temperature-controlled heater at 55 °C throughout the experiment. For the data presented in Fig. 5d, the column was heated at 50 °C following the manufacturer’s instructions (IonOpticks).
Acquired raw files were converted to mzML format by MSConvert (version 3.0.21258)[67] applying peak picking of the mass spectra with the vendor-provided algorithm (Thermo Fisher Scientific). The mzML files were analyzed using the FragPipe GUI v18 for both library and DIA search. […] Trypsin with up to 2 missed cleavages was set as digestion enzyme, oxidation of methionine, acetylation of the N-terminus and phosphorylation on serine, threonine and tyrosine (maximal occurrence was set to three) were set as variable modifications. Carbamidomethylation of cysteine residues was set as a fixed modification. Peptide length was restricted to 7 to 50 amino acids, and 500 to 5000 Da. The precursor tolerance was set to ±20 ppm, fragment mass tolerance to 20 ppm and MSBooster was enabled. The resulting peptide-spectrum matches were adjusted to a 1% false discovery rate with Percolator[69] as part of the Philosopher toolkit (v4.4)[70] and converted to a spectra library. DIA files were analyzed by DIA-NN 1.8.1[71], [72] using the previously generated library and monitor-command mode. Peptide quantification was performed based on the fragment elution profiles from the MS2 level (area under the curve).
All further data processing was performed in R (version 4.2.1). Only phosphopeptides with a localization score of at least 0.75 were considered for further analysis. […]

[1] = 15min, relative to time-matched vehicle condition, p.value […], passed.all.criteria 0
[2] = 60min, relative to time-matched vehicle condition, p.value […], passed.all.criteria 0

N#Cc1ccc(COc2cccc(C3CCN(Cc4nc5ccc(C(=O)O)cc5n4C[C@@H]4CCO4)CC3)n2)c(F)c1 [Danuglipron]
regulation of RAB1B and α-synuclein phosphorylation, in words (1 μM): significantly regulated by danuglipron
number of phosphopeptides overlapping between danuglipron and semaglutide treatments (1 μM, 30 min): 8
number of significantly altered phosphopeptides (1 μM, 30 min, drug-specific, vs vehicle): 220
Normalized phosphoproteomics data, ESYT2 S691 (A0FGR8) (5min, repA): 19.6049
Normalized phosphoproteomics data, HMX3 S60 (A6NHT5) (5min, repA): 20.3906
Normalized phosphoproteomics data, HNRNPA1L3 Y250 (A0A2R8Y4L2) (5min, repA): 20.6785
Normalized phosphoproteomics data, POM121C T710 (A8CG34) (5min, repA): 20.0234
Normalized phosphoproteomics data, SBNO1 S794 (A3KN83) (5min, repA): 17.9318
Normalized phosphoproteomics data, ESYT2 S691 (A0FGR8) (5min, repB): 19.6976
Normalized phosphoproteomics data, HMX3 S60 (A6NHT5) (5min, repB): 20.283
Normalized phosphoproteomics data, HNRNPA1L3 Y250 (A0A2R8Y4L2) (5min, repB): 20.3164
Normalized phosphoproteomics data, POM121C T710 (A8CG34) (5min, repB): 20.7371
Normalized phosphoproteomics data, SBNO1 S794 (A3KN83) (5min, repB): 18.211
Normalized phosphoproteomics data, ESYT2 S691 (A0FGR8) (5min, repC): 21.1682
Normalized phosphoproteomics data, HMX3 S60 (A6NHT5) (5min, repC): 19.9991
Normalized phosphoproteomics data, HNRNPA1L3 Y250 (A0A2R8Y4L2) (5min, repC): 20.6414
Normalized phosphoproteomics data, POM121C T710 (A8CG34) (5min, repC): 20.3991
Normalized phosphoproteomics data, SBNO1 S794 (A3KN83) (5min, repC): 18.5685
log2.foldchange, FOXK2 S30 (Q01167) (5min, relative to time-matched vehicle condition, p.value 0.0181801, passed.all.criteria 0): 0.5529
log2.foldchange, EIF3J S11 (O75822) (5min, relative to time-matched vehicle condition, p.value 0.0905175, passed.all.criteria 0): -0.3791
log2.foldchange, SCFD1 S14 (Q8WVM8) (5min, relative to time-matched vehicle condition, p.value 0.889419, passed.all.criteria 0): 0.04613
log2.foldchange, CABLES2 T26;S27 (Q9BTV7) (5min, relative to time-matched vehicle condition, p.value 0.907346, passed.all.criteria 0): 0.07188
log2.foldchange, POLE4 S25 (Q9NR33) (5min, relative to time-matched vehicle condition, p.value […], passed.all.criteria 0): 0.5824
Normalized phosphoproteomics data, ESYT2 S691 (A0FGR8) (15min, repA): 18.6451
Normalized phosphoproteomics data, HMX3 S60 (A6NHT5) (15min, repA): 20.5059
Normalized phosphoproteomics data, HNRNPA1L3 Y250 (A0A2R8Y4L2) (15min, repA): 20.4577
Normalized phosphoproteomics data, POM121C T710 (A8CG34) (15min, repA): 20.5017
Normalized phosphoproteomics data, SBNO1 S794 (A3KN83) (15min, repA): 18.6084
Normalized phosphoproteomics data, ESYT2 S691 (A0FGR8) (15min, repB): 18.4413
Normalized phosphoproteomics data, HMX3 S60 (A6NHT5) (15min, repB): 22.3446
Normalized phosphoproteomics data, HNRNPA1L3 Y250 (A0A2R8Y4L2) (15min, repB): 20.4067
Normalized phosphoproteomics data, POM121C T710 (A8CG34) (15min, repB): 18.6564
Normalized phosphoproteomics data, SBNO1 S794 (A3KN83) (15min, repB): 17.9968
Normalized phosphoproteomics data, ESYT2 S691 (A0FGR8) (15min, repC): 20.8902
Normalized phosphoproteomics data, HMX3 S60 (A6NHT5) (15min, repC): 20.8902
Normalized phosphoproteomics data, HNRNPA1L3 Y250 (A0A2R8Y4L2) (15min, repC): 20.9108
Normalized phosphoproteomics data, POM121C T710 (A8CG34) (15min, repC): 19.3031
Normalized phosphoproteomics data, SBNO1 S794 (A3KN83) (15min, repC): 18.3915
log2.foldchange, EIF3J S11 (O75822) (15min, relative to time-matched vehicle condition, p.value 0.0462694, passed.all.criteria 0): 0.3639
log2.foldchange, SCFD1 S14 (Q8WVM8) (15min, relative to time-matched vehicle condition, p.value 0.844107, passed.all.criteria 0): 0.06372
log2.foldchange, CABLES2 T26;S27 (Q9BTV7) [1]: 0.288
log2.foldchange, FOXK2 S30 (Q01167) [1]: 0.1878
log2.foldchange, POLE4 S25 (Q9NR33) [1]: -0.08464
Normalized phosphoproteomics data, ESYT2 S691 (A0FGR8) (30min, repA): 21.4861
Normalized phosphoproteomics data, HMX3 S60 (A6NHT5) (30min, repA): 20.1311
Normalized phosphoproteomics data, HNRNPA1L3 Y250 (A0A2R8Y4L2) (30min, repA): 20.8036
Normalized phosphoproteomics data, POM121C T710 (A8CG34) (30min, repA): 20.7324
Normalized phosphoproteomics data, SBNO1 S794 (A3KN83) (30min, repA): 18.5741
Normalized phosphoproteomics data, ESYT2 S691 (A0FGR8) (30min, repB): 20.3489
Normalized phosphoproteomics data, HMX3 S60 (A6NHT5) (30min, repB): 20.2063
Normalized phosphoproteomics data, HNRNPA1L3 Y250 (A0A2R8Y4L2) (30min, repB): 19.9638
Normalized phosphoproteomics data, POM121C T710 (A8CG34) (30min, repB): 20.3008
Normalized phosphoproteomics data, SBNO1 S794 (A3KN83) (30min, repB): 18.1584
Normalized phosphoproteomics data, ESYT2 S691 (A0FGR8) (30min, repC): 19.608
Normalized phosphoproteomics data, HMX3 S60 (A6NHT5) (30min, repC): 21.342
Normalized phosphoproteomics data, HNRNPA1L3 Y250 (A0A2R8Y4L2) (30min, repC): 21.4798
Normalized phosphoproteomics data, POM121C T710 (A8CG34) (30min, repC): 19.571
Normalized phosphoproteomics data, SBNO1 S794 (A3KN83) (30min, repC): 18.2269
log2.foldchange, POLE4 S25 (Q9NR33) (30min, relative to time-matched vehicle condition, p.value 0.0332159, passed.all.criteria 0): 0.4522
log2.foldchange, CABLES2 T26;S27 (Q9BTV7) (30min, relative to time-matched vehicle condition, p.value 0.0661459, passed.all.criteria 0): -0.4521
log2.foldchange, TRAF2 T7;S11 (Q12933) (30min, relative to time-matched vehicle condition, p.value 0.177246, passed.all.criteria 0): 1.124
log2.foldchange, FOXK2 T13 (Q01167) (30min, relative to time-matched vehicle condition, p.value 0.184134, passed.all.criteria 0): -0.3505
log2.foldchange, SCFD1 S14 (Q8WVM8) (30min, relative to time-matched vehicle condition, p.value […], passed.all.criteria 0): -0.2911
Normalized phosphoproteomics data, ESYT2 S691 (A0FGR8) (60min, repA): 20.822
Normalized phosphoproteomics data, HMX3 S60 (A6NHT5) (60min, repA): 21.3332
Normalized phosphoproteomics data, HNRNPA1L3 Y250 (A0A2R8Y4L2) (60min, repA): 20.6441
Normalized phosphoproteomics data, POM121C T710 (A8CG34) (60min, repA): 20.5636
Normalized phosphoproteomics data, SBNO1 S794 (A3KN83) (60min, repA): 19.2753
Normalized phosphoproteomics data, ESYT2 S691 (A0FGR8) (60min, repB): 21.3269
Normalized phosphoproteomics data, HMX3 S60 (A6NHT5) (60min, repB): 22.1586
Normalized phosphoproteomics data, HNRNPA1L3 Y250 (A0A2R8Y4L2) (60min, repB): 20.7268
Normalized phosphoproteomics data, POM121C T710 (A8CG34) (60min, repB): 20.6117
Normalized phosphoproteomics data, SBNO1 S794 (A3KN83) (60min, repB): 18.9035
Normalized phosphoproteomics data, ESYT2 S691 (A0FGR8) (60min, repC): 21.6663
Normalized phosphoproteomics data, HMX3 S60 (A6NHT5) (60min, repC): 20.1861
Normalized phosphoproteomics data, HNRNPA1L3 Y250 (A0A2R8Y4L2) (60min, repC): 20.5504
Normalized phosphoproteomics data, POM121C T710 (A8CG34) (60min, repC): 19.5289
Normalized phosphoproteomics data, SBNO1 S794 (A3KN83) (60min, repC): 18.62
log2.foldchange, POLE4 S25 (Q9NR33) (60min, relative to time-matched vehicle condition, p.value 0.629383, passed.all.criteria 0): 0.05873
log2.foldchange, SCFD1 S14 (Q8WVM8) (60min, relative to time-matched vehicle condition, p.value 0.819487, passed.all.criteria 0): -0.06624
log2.foldchange, CABLES2 T26;S27 (Q9BTV7) [2]: -0.3341
log2.foldchange, EIF3J S11 (O75822) [2]: -0.413
log2.foldchange, TRAF2 T7;S11 (Q12933) [2]: 0.4682
